Assay results taken from patent publication US20050020576A1, “Kappa agonist compounds and pharmaceutical formulations thereof” (priority 1996, published 2005).
Where a name gives a salt, the structure may show the parent alone.

Row | SMILES | melting point
1 | CCOC(=O)/C=C/C(=O)Nc1cc(Cl)c(Cl)cc1CC(=O)N(C)[C@H](CN1CCCC1)c1ccccc1 (as salt: hydrochloride) [Example 3y, (E) Ethyl 4-[2-(2-amino-4,5-dichlorophenyl)-N-methyl-N-[(1S)-1-phenyl)-2-[1-pyrrolidinyl]ethyl]acetamido]4-oxo-2-butenoate hydrochloride] | 165 to 167 °C (dec.)
2 | COC(=O)N1CCN(C(=O)Cc2c[nH]c3ccccc23)C(CN2CCCC2)C1 (racemic) (as salt: hydrochloride) [(R,S-9c), (R,S)-Methyl 4-[(3-indolyl)acetyl]-3-[(1-pyrrolidinyl)-methyl]-1-piperazine-carboxylate hydrochloride] | 143 °C
3 | CN(C(=O)Cc1ccc(O)c(N(S(C)(=O)=O)S(C)(=O)=O)c1)[C@H](CN1CCCC1)c1ccccc1 (as salt: salt) [Example 130, 2-(3-N-Bis-methylsulfonamido-3-amino-4-hydroxyphenyl)-N-methyl-N-[(1S)-1-phenyl-2-(1-pyrrolidinyl)ethyl]acetamide] | 197 to 199 °C
4 | CC(=O)N1CCN(C(=O)Cc2ccc(C(F)(F)F)cc2)C(CN2CCCC2)C1 (racemic) (as salt: hydrochloride) [(R,S-10b)] | 110 °C
5 | CN(C(=O)Cc1ccc(S(C)(=O)=O)cc1)[C@@H]1c2ccccc2C[C@H]1N1CCCC1 (racemic) (as salt: HCl) | 246 to 248 °C
6 | CC(=O)N1CCN(C(=O)Cc2ccccc2[N+](=O)[O-])C(CN2CCCC2)C1 (racemic) (as salt: hydrochloride) [(R,S-10e), (R,S)-4-Acetyl-1-[(2-nitrophenyl)acetyl]-3-[(1-pyrrolidinyl)-methyl]piperazine-carboxylate hydrochloride] | 180 °C (dec.)
7 | COc1ccc(CC(=O)N(C)[C@H](CN2CCCC2)c2ccccc2)cc1NS(C)(=O)=O (as salt: methane sulfonate) [Example 122, 2-(3-N-Methylsulfonamido-3-amino-4-methoxyphenyl)-N-methyl-N-[(1S)-1-phenyl-2-(1-pyrrolidinyl)ethyl]acetamide methane sulfonate] | 149 to 151 °C
8 | CN(C(=O)Cc1ccccc1N)[C@H](CN1CCCC1)c1cccc(N)c1 (as salt: HCl) | 219 to 222 °C
9 | COc1cc2c(cc1S(=O)(=O)N(C)Cc1ccccc1)[C@@H](N(C)C(=O)Cc1ccc(Cl)c(Cl)c1)[C@H](N1CCCC1)CC2 (racemic) (as salt: HCl) | 150 °C (dec.)
10 | Cc1ccc(S(=O)(=O)N2CCN(C(=O)Cc3ccc(Cl)c(Cl)c3)[C@H](CN3CCCC3)C2)cc1 (as salt: hydrochloride) [(R-3l), (R)-4-(4-Methyphenylsulfonyl)-1-[(3,4-dichlorophenyl)acetyl]-2-[(1-Pyrrolidinyl)methyl]-piperazine hydrochloride] | 240 °C (dec.)
11 | CN(C(=O)Cc1cc2c(cc1S(=O)(=O)N(C)C)OCO2)[C@H](CN1CCCC1)c1ccccc1 (as salt: HCl) [Example 132, 2-[2-(N-Dimethylsulfamoyl)-4,5-methylenedioxyphenyl]-N-methyl-N-[(1S)-1-phenyl-2-[(1-pyrrolidinyl)ethyl]]acetamide] | 269 to 271 °C
12 | CN(C(=O)Cc1ccc(O)c(NS(C)(=O)=O)c1)[C@H](CN1CCCC1)c1ccccc1 (as salt: HCl) [Example 124, 2-(3-N-Methylsulfonamido-3-amino-4-hydroxyphenyl)-N-methyl-N-[(1S)-1-phenyl-2-(1-pyrrolidinyl)ethyl]acetamide] | 228 to 230 °C
13 | CCOP(=O)(Nc1cccc([C@@H](CN2CCCC2)N(C)C(=O)Cc2ccc(Cl)c(Cl)c2)c1)OCC (as salt: hydrochloride) [Example 3g, 2-(3,4-Dichlorophenyl)-N-methyl-N-[(1S)-1-[3-(diethyl Phosphoryl)amino]phenyl)-2-(1-pyrrolidinyl)ethyl]acetamide hydrochloride] | 140 to 142 °C
14 | CS(=O)(=O)O[C@H]1CCN(CC2CN(S(C)(=O)=O)CCN2C(=O)Cc2ccc(Cl)c(Cl)c2)C1 (stereo partly drawn) (as salt: hydrochloride) [Example 1jj, 4-Methanesulfonyl-1-[(3,4-dichlorophenyl)acetyl]-2-(R,S)-[3-(S)-methanesulfonate-1-(pyrrolidinyl)methyl]piperazine hydrochloride] | 130 to 132 °C
15 | COC(=O)N1CCN(C(=O)Cc2ccc(C(F)(F)F)cc2)C(CN2CCCC2)C1 (racemic) (as salt: hydrochloride) [(R,S-9b), (R,S)-Methyl 4-[(4-trifluoromethylphenyl)acetyl]-3-[(1-pyrrolidinyl)-methyl]-1-piperazinecarboxylate hydrochloride] | 210 °C
16 | O=C(Cc1ccc(C(F)(F)F)cc1)N1CCN(C(=O)C(F)(F)F)CC1CN1CCCC1 (racemic) (as salt: hydrochloride) [Example 1h, 4-Trifluoroacetyl-1-[(-4-trifluoromethylphenyl)acetyl]-2-(R,S)-(1-pyrrolidinyl)methyl]piperazine hydrochloride] | 140 to 145 °C
17 | CN(C(=O)Cc1cc(Cl)c(Cl)cc1[N+](=O)[O-])[C@H](CN1CCCC1)c1cccc([N+](=O)[O-])c1 (as salt: HCl) | 165 °C (dec.)

Row | SMILES | melting point
18 | CC(=O)N1CCN(C(=O)Cc2cccc([N+](=O)[O-])c2)C(CN2CCCC2)C1 (racemic) (as salt: hydrochloride) [(R,S-10d), (R,S)-4-Acetyl-1-[(3-nitrophenyl)acetyl]-3-[(1-pyrrolidinyl)-methyl]piperazine-carboxylate hydrochloride] | 143 to 145 °C
19 | COC(=O)N1CCN(C(=O)Cc2ccccc2[N+](=O)[O-])C(CN2CCCC2)C1 (racemic) (as salt: hydrochloride) [(R,S-9d), (R,S)-Methyl 4-[(2-nitrophenyl)acetyl]-3-[(1-Pyrrolidinyl)-methyl]-1-piperazine-carboxylate hydrochloride] | 228 °C
20 | CN(C(=O)Cc1ccc(Cl)c(Cl)c1)[C@@H]1c2cc(S(=O)(=O)N(C)Cc3ccccc3)ccc2CC[C@H]1N1CCCC1 (racemic) (as salt: HCl) | 251 to 254 °C
21 | CN(C(=O)Cc1ccc(C(F)(F)F)cc1NS(C)(=O)=O)[C@H](CN1CC[C@H](O)C1)c1ccccc1 (as salt: HCl) [Example 126, 2-(2-N-Methylsulfonamido-2-amino-4-trifluoromethylphenyl)-N-methyl-N-[(1S)-1-phenyl-2-[1-(3S)-(3-hydroxypyrrolidinyl)ethyl]]acetamide] | 178 to 181 °C
22 | COc1cc(CC(=O)N(C)[C@H](CN2CCCC2)c2ccccc2)c(S(=O)(=O)N(C)CC(=O)O)cc1OC (as salt: HCl) [Example 142, N-Methyl-[[2-(N-sulfamoyl)-4,5-dimethoxyphenyl]-N-methyl-N-[(1S)-1-phenyl-2-[1-(pyrrolidinyl)ethyl]]acetamido]glycine] | 231 to 233 °C (dec.)
23 | COC(=O)N1CCN(C(=O)Cc2ccc(S(C)(=O)=O)cc2)C(CN2CCCC2)C1 (racemic) (as salt: hydrochloride) [(R,S-9a), (R,S)-Methyl 4-[(4-methylsulfonylphenyl)acetyl]-3-[(1-pyrrolidinyl)-methyl]-1-piperazinecarboxylate hydrochloride] | 225 °C
24 | CCCCOC(=O)Nc1ccc(CC(=O)N(C)[C@H](CN2CCCC2)c2cccc([N+](=O)[O-])c2)cc1 (as salt: HCl) | 170 °C (dec.)
25 | COc1cc(CC(=O)N(C)[C@H](CN2CC[C@H](O)C2)c2ccccc2)c(S(=O)(=O)N2CCOCC2)cc1OC (as salt: HCl) [Example 141, 2-[2-N-(Morpholinesulfamoyl)-4,5-dimethoxyphenyl]-N-methyl-N-[(1S)-1-phenyl-2-[1-(3S)-(3-hydroxypyrrolidinyl)ethyl]]acetamide] | 158 to 161 °C
26 | CNS(=O)(=O)c1cccc(CC(=O)N(C)[C@@H]2CCCC[C@H]2N2CCCC2)c1OC.Cl (racemic) | 168 to 170 °C
27 | COc1ccc(C(CN2CCCC2)N(C)C(=O)Cc2ccccc2NS(C)(=O)=O)cc1 (racemic) (as salt: salt) [Example 128] | 170 to 172 °C
28 | CN(C(=O)Cc1cc2c(cc1S(=O)(=O)N(C)Cc1ccccc1)OCO2)[C@H](CN1CCCC1)c1ccccc1 (as salt: salt) [Example 131, 2-[2-(N-Benzyl-N-methylsulfamoyl)-4,5-methylenedioxyphenyl]-N-methyl-N-[(1S)-1-phenyl-2-[(1-pyrrolidinyl)ethyl]]acetamide] | 236 to 238 °C
29 | COc1cccc(C(CN2CCCC2)N(C)C(=O)Cc2ccccc2NS(C)(=O)=O)c1 (racemic) (as salt: sulfonic acid salt) [Example 3uu, (R,S)-1-[2-(Methanesulfonylamino)phenyl-N-methylacetamido]-1-(3-methoxyphenyl)-2-(1-pyrrolidino)-ethane, methanesulfonic acid salt] | 135 °C (dec.)
30 | COc1cc(CC(=O)N(C)[C@H](CN2CCCC2)c2ccccc2)c(S(=O)(=O)N(C)C)cc1OC (as salt: HCl) [Example 136, 2-[2-(N-Dimethylsulfamoyl)-4,5-dimethoxyphenyl]-N-methyl-N-[(1S)-1-phenyl-2-[(1-pyrrolidinyl)ethyl]]acetamide] | 246 to 248 °C
31 | CN(C(=O)Cc1ccc(Cl)c(Cl)c1)[C@H](CN1CCCC1)c1cccc(NC(=O)CCC(=O)NCC(=O)O)c1 (as salt: hydrochloride) [Example 3j, 2-(3,4-Dichlorophenyl)-N-methyl-N-{(1R,S)-1-[3-(3-(((hydroxycarbonyl)-methyl)aminocarbonyl)propionamido)phenyl]-2-(1-pyrrolidinyl)ethyl}acetamide hydrochloride] | 158 °C (dec.)
32 | CN(C(=O)Cc1cc(Cl)c(Cl)cc1NC(=O)/C=C\C(=O)O)[C@H]1CCCC[C@@H]1N1CCCC1 (racemic) | 246 to 248 °C (dec.)
33 | CN(C(=O)Cc1ccc(Cl)c(Cl)c1)[C@@H]1c2cc(N(CC(=O)O)CC(=O)O)ccc2CC[C@H]1N1CCCC1 (relative stereo) (as salt: HCl) | 160 °C (dec.)
